The target of test [1] is T1, AP-1 complex (Fos/Jun peptide) (Homo sapiens, UniProt P01100+P05412).
T1 construct: made in house; host or cells: chemical peptide synthesis (no expression host)
Nature of the test: Activities on AP-1 binding reaction to recognition sequence (ELISA) using Fos/Jun peptide. The conditions noted are these: read-out: Inhibition rate %. The method, then: (§1) Activities on AP-1 Binding Reaction to Recognition Sequence (ELISA)
On the other hand, Jun peptide and N-terminal biotinylated tetraglycine Fos peptide containing a DNA-binding site [Nature, Vol. 373, Pages 257-261, 1995] were synthesized and separately dissolved in tris buffer (20 mM tris-hydrochloride (pH 7.5), 50 mM potassium chloride, 1 mM ethylenediaminetetraacetic acid, 10 mM magnesium chloride, 1 mM dithiothreitol, 0.5M guanidine hydrochloride, 30% glycerol). Equimolar quantities of both the solutions were mixed together, and the mixture was used as an AP-1 complex (Fos/Jun peptide). The AP-1 complex was added to avidin-coating 96-well ELISA plate (10 pmol/well), washed, and then blocked with bovine serum albumin. The product was used for binding assay using AP-1 complex.
(§2) On the basis of the above-mentioned two coated AP-1, a digoxigenin-labeled double stranded oligonucleotide (22-mer) containing an AP-1 binding sequence ([…]) which has been synthesized elsewhere was reacted in the presence and absence of a sample at room temperature for 30-60 minutes in a binding reaction solution [Hepes buffer or 25 mM tris-hydrochloric acid (pH 7.9), 0.5 mM ethylenediaminetetraacetic acid, 0.05% Nonidet P-40, 10% glycerol]. After of the reaction, unbound labeled oligonucleotide washed out with Hepes buffer solution containing 0.05% of Tween-20. Then, an anti-digoxigenin antibody labeled with peroxidase was added, and reacted with the labeled oligonucleotide bound to AP-1. After washing out the excessive antibody with Hepes buffer containing 0.05% of Tween-20, the residue was reacted for a predetermined period of time in a 100 mM citrate buffer (pH 5.0) containing hydrogen peroxide by using o-phenylenediamine as a substrate. After adding-sulfuric acid solution to each well, absorbance (492 nm) was measured. Taking the absorbance in the absence of sample as 100%, inhibition rate of sample was calculated from the absorbance in the presence of sample.

The test system of test [2] is type II collagen-induced arthritis. Nature of the test: Type II collagen-induced arthritis in mice. It counts as in vivo. As to conditions: for inhibition at 100 mg/kg: Mus musculus, po, 100 mg/kg orally, 37th day. The method, then:
Type II Collagen-Induced Arthritis in Mice The effect of the compound of Example 12 on the type II collagen-induced arthritis in mice was examined. As the animals, 8 weeks old male DBA/1J mice (Charles River Japan) were used. To 2 mg/mL solution of bovine type II collagen in 0.1 mol/L acetic acid (Kouken) was added an equivalent quantity of Freund complete adjuvant (Nacalai Tesque), and prepared an emulsion. 0.2 ml of the emulsion was subcutaneously injected into the tail root portion. On the 22nd day as counted from the day of first inoculation, the same treatment as above was repeated to induce arthritis. The compound was suspended in 0.5% methyl cellulose solution and administered orally at 100 mg/kg once every day from the 22nd day to the 36th day. To the control group (negative control group), a 0.5% methyl cellulose solution was administered similarly. Severity of the arthritis was evaluated in the following manner: score 0: no change score 1: swelling on one or two toes or slight swelling in the foreleg root or hindleg root only; score 2: swelling and rubor in more joints; score 3: extensive swelling over whole foreleg or hindleg; and total of the four legs was calculated. Taking the maximum score as 12, the arthritis score was calculated to evaluate the severity of arthritis. Regarding the destruction of joints and bones, X ray photographs of four paws were taken on the 37th day, and severity of destruction in the second to fifth articulationes interphalangeae, first to fifth articulationes metacarpophalangeae and metatarsophalangeae, and calcaneus was scored by 0 or 1 in accordance with presence or absence of destruction, and the severity of destruction in the carpus and tarsal was scored by 0 to 3. Total score for the four paws was taken as joint and bone destruction score, taking 50 points as maximum score.

Test [3] deals with transcription factor AP-1 (nuclear extract protein prepared from HeLa cells). The test is described as follows: Activities on AP-1 binding reaction to recognition sequence (ELISA) using nuclear extract protein. As to conditions: 100 μM; ELISA using nucleus-extracted protein. As for the experimental part: as §1
Nuclear extract protein containing transcription factor AP-1 prepared from HeLa cells was coated on 96-well ELISA plate (100 ng/well) in Hepes buffer (20 mM Hepes-potassium hydroxide (pH 7.9), 0,5 mM ethylenediamine-tetraacetic acid, 50 mM potassium chloride, 10% glycerol). After washing, a blocking treatment was carried out with bovine serum albumin, and then used for a binding assay using nuclear extract protein.
as §2

The values below come from patent US7314888B1, “Compounds and medicinal use thereof” (Toyama Chemical Co., Ltd., priority 1998, dated 2008).

Where two headings read alike, the source gives them in different places. Bridge positions count the residues as written; N and C are the ends. Peptide text beside a SMILES is read from it.

T1 sequence (P01100 137-200 limits assumed): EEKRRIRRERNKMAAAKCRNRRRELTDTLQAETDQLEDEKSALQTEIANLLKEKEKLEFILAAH
T1 sequence (P05412 252-315 limits assumed): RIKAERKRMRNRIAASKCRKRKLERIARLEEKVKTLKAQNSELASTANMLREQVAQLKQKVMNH

For `CC(C)COc1ccc(C(=O)c2ccc(OCC(C)C)c(CCC(=O)O)c2)c(OCC(C)C)c1` [Example 12, 3-[5-(2,4-diisobutoxybenzoyl)-2-isobutoxyphenyl]propionic acid], in test [1] (200 μM), the inhibition at 200 µM stood at 24%. Moreover, the inhibition at 500 µM in test [1] (500 μM) stood at 90%. The arthritis score in test [2] (DBA/1J mice, 100 mg/kg orally once every day from 22nd to 36th day, 37th day from first inoculation, maximum score 12) came to 3. In test [2] (DBA/1J mice, 100 mg/kg orally once every day from 22nd to 36th day, X ray on 37th day, maximum score 50), the “joint and bone destruction score” value is 10. For the same compound, the inhibition at 100 mg/kg stood at 63% in test [2] (read-out: inhibition rate as compared with control group (arthritis score)); 62% in test [2] (read-out: inhibition rate as compared with control group (joint and bone destruction score)).
As for `CC(=O)NC1CSSCC(C(N)=O)NC(=O)CNC(=O)C(CC(=O)O)NC(=O)C(C)NC(=O)C(CC(C)C)NC(=O)C(CO)NC(=O)C(CC(C)C)NC(=O)C(CCC(N)=O)NC(=O)CNC1=O` (stereo not drawn) [3(5), Ac-Cys^1-Gly-Gln-Leu-Ser-Leu-Ala-Asp-Gly-Cys^10-NH2 (Cys^1-Cys^10)] (Ac-CGQLSLADGC-NH2; disulfide 1-10; configuration not given here), the Inhibition rate in test [3] is listed as 43%.
